Reference: patent US12251383B2, “Methods and compositions for KRAS inhibitors” (The Board of Regents of the University of Texas System, priority 2019, dated 2025)
“Also recorded” adds a separate entry of the source.

How the values were obtained:
[1] = system: H522 (KRAS^WT) lung cancer cells; experiment: Cell proliferation (CyQuant), H522; assay type: cell-based; settings: 72 h
Experimental: (§1) Cell proliferation. Potential effect of the ligands on cancer cell proliferation was tested in three lung cancer cells: SKLU-1, H1975 and H522. Cells were plated at ˜1,000 cell per well in a 96-well plate and maintained in full serum media with or without compound at 37° C. for 72 h changing the media with the compound every 24 h. Media with compound was prepared by serial dilution at concentrations indicated. Then cells were washed with PBS and frozen at −80° C. for a minimum of 24 h. Plates were thawed and CyQuant™ dye (in lysis buffer provided in the CyQuant™ cell proliferation assay kit, Invitrogen™) was added, and after a five-minute incubation, fluorescence (excitation: 480 nm emission: 520 nm) was measured with a Tecan Infinite M200 plate reader.

[2] = target: T1, KRAS^G12D-cRaf interaction (Homo sapiens, UniProt P01116, G12D); experiment: FLIM-FRET of GFP-KRAS G12D and RFP-cRaf in BHK cells; assay type: cell-based, hamster; settings: 1 μM
T1 construct: expressed in transfected cells; host or cells: BHK (baby hamster kidney) cells, transient expression
Excerpt: [formula] where P1 is polarization of free KRAS, P2 is polarization of Raf-bound KRAS, c is the total concentration of KRAS, and x the total concentration of Raf^RBD. (FIG. 2B) Amount of GFP-KRAS^G12D pulled down by GST-Raf^RBD after treatment of cell lysates with compound at the concentrations indicated (representative Westerns are shown at the top). The RBD sequence length was 1-149 and 51-131 in the fluorescence polarization and pull-down assays, respectively. (FIG. 2C) GFP fluorescence lifetime from FLIM-FRET using cells expressing GFP-KRAS^G12D alone or with RFP-Raf, with or without treatment by 1 μM compound 11. Data are shown as mean±S.E; significance estimated by one-way analysis of variance.
Fluorescence lifetime imaging (FLIM)-fluorescence resonance energy transfer (FRET). FLIM-FRET experiments were carried out using a lifetime fluorescence imaging attachment (Lambert Instruments, The Netherlands) on an inverted microscope (43). BHK cells transiently expressing mGFP-tagged KRAS^G12D (donor), alone or with mRFP-tagged cRaf^WT (acceptor) (using 1:5 ratio), were prepared as indicated in each experiment. The samples were excited using a sinusoidally modulated 3 W 470 nm light-emitting diode at 40 MHz under epi-illumination. Fluorescein was used as a lifetime reference standard. […] The phase and modulation were determined from 12 phase settings using the manufacturer's software. […]

[3] = system: SKLU-1 (KRAS^G12D) lung cancer cells; experiment: Cell proliferation (CyQuant), SKLU-1; assay type: cell-based; settings: 72 h
Experimental: as §1

KRASWT = KRASWT (Homo sapiens, UniProt P01116); experiment: Nucleotide exchange assay (intrinsic and SOS-mediated); assay type: biochemical
Experimental: Nucleotide exchange and release assays. Loading of fluorescent-labeled GDP (BODIPY-GDP; BGDP from hereon) to KRAS was conducted following previous reports (23, 47), with minor modifications. Purified KRAS was buffer-exchanged in NAP-5 column (GE Life Sciences) in low Mg^2+ buffer (25 mM Tris pH 7.5, 50 mM NaCl, and 0.5 mM MgCl2). The eluate was incubated with 10-fold molar excess of BGDP (Life Technologies) in the presence of 5 mM EDTA and 1 mM DTT for 1.5 h at 20° C. in the dark. Then 10 mM MgCl2 was added and the solution was incubated for 30 min at 20° C. Free nucleotide was removed by gel filtration using a PD-10 column (GE Life Sciences) that had been equilibrated with the reaction buffer (25 mM Tris-HCL pH 7.5, 50 mM NaCl, 1 mM MgCl2, and 1 mM DTT). The concentration of ^BGDPKRAS was determined using Bradford assay and a BGDP standard curve. Then the effect of ligands on the intrinsic rate of nucleotide release was monitored using the decrease in fluorescence with time as BGDP dissociates from KRAS in a 100 μL reaction mixture (96-well plate) of 0.5 μM B^GDPKRAS, 100 μM GTP and varying concentrations of ligand (0 to 25 μM); GTP was added just before measurements. To measure the rate of SOS-mediated nucleotide release, 0.5 μM SOS (residues 564-1049, Cytoskeleton Inc) was added after adding GTP, and fluorescence was immediately read (excitation: 485 nm, emission: 510 nm) using Tecan Infinite M200 plate reader. Intrinsic and SOS-mediated nucleotide exchange rates were monitored with the fluorescence intensity increase of BGTP as it displaces GDP from KRAS. A 100 μL reaction mixture was used containing 0.5 μM each of ^GDPKRAS, BGTP (and SOS) plus varying concentrations of ligand (0 to 25 μM); BGTP was added just before measurements. Experiments were conducted with minimal light and the reaction was monitored for 2 h at room temperature. Fluorescence intensities were normalized at 120 s and the traces were fit with linear or single exponential functions (Igor Pro, Wavemetrics).
The effect of compound 11 on intrinsic and GEF-dependent nucleotide release and exchange reactions was determined. […] In particular, 11 decreased the intrinsic rate of nucleotide exchange by ˜10-fold at >10 μM (Fig S4, top-left), but it has no effect on intrinsic nucleotide release (Appendix I, Figure S4, bottom-left). […] Since GTP hydrolysis is unlikely to occur within the timescale of the experiments disclosed herein (2, 3), a plausible interpretation of the former would be compromised GTP loading. This is possible if, for example, the ligand binds to the nucleotide free ‘transition state’ conformation of KRAS and induces reorganization of active site residues. […]

SMILES: Cc1nn2c(N3CCN(CCO)CC3)cc(-c3ccccc3)nc2c1-c1ccccc1 [Compound 11, 2-[4-(8-methyl-3,9-diphenyl-2,6,7-triazabicyclo[4.3.0]nona-2,4,7,9-tetraen-5-yl)piperazin-1-yl]ethanol]
- sensitivity of proliferation [1]: sensitive
- KRAS^G12D-cRaf interaction (quenching of GFP fluorescence lifetime) [2]: significantly reduced
- sensitivity of proliferation [3]: slightly more sensitive; also recorded: especially responsive
- effect on SOS-mediated nucleotide exchange rate (KRASWT; SOS-mediated): slightly reduced
- decrease of rate of nucleotide exchange (KRASWT; SOS-mediated (Fig S4 top-right)): 1.1 fold
- effect on intrinsic nucleotide exchange rate (KRASWT; intrinsic): slightly reduced
- decrease of intrinsic rate of nucleotide exchange (KRASWT; intrinsic, at >10 μM): ~10 fold
